From ChEMBL document CHEMBL5390201, “The Natural Alkaloid (-)-N-Hydroxyapiosporamide Suppresses Colorectal Tumor Progression as an NF-κB Pathway Inhibitor by Targeting the TAK1-TRAF6 Complex” (J Nat Prod, 2023)
Active and inactive are the calls of the source. No cut-off for these calls is given here.

Legend:
[1] = tested on: HCT-116; test: Induction of cell cycle arrest in human HCT-116 cells assessed as decrease in Cdc2 protein expression upto 10 uM incubated for 24 hrs by Western blot analysis; type: functional, cell-based
[2] = tested on: HCT-116; test: Induction of cell cycle arrest in human HCT-116 cells assessed as accumulation of cells at G0/G1 phase at 10 uM by RNase/PI staining based flow cytometry analysis (reference value: 33.08 %); type: functional
[3] = tested on: HCT-116; test: Induction of apoptosis in human HCT-116 cells assessed as late apoptotic cells at 0.25 uM incubated for 24 hrs by Annexin V-FITC/PI staining based flow cytometric analysis (reference value: 2.9 %); type: functional
[4] = tested on: Mus musculus; test: (§1) Anti-inflammatory activity in AOM/DSS-induced BALB/c mouse model inflammatory bowel disease assessed as reduction in tumor length at 5 to 10 mg/kg, ip pretreated with AOM for 7 days further replaced with DSS for 7 days and repeated for 2 times followed by every 2 days compound treatment for […] starting from day 50 and measured once a week; type: functional, organism-based; conditions: dose 5-10 mg/kg, time 21.0 day
[5] = tested on: HCT-116; test: Induction of cell cycle arrest in human HCT-116 cells assessed as decrease in Cdc25c protein expression upto 10 uM incubated for 24 hrs by Western blot analysis; type: functional, cell-based
[6] = tested on: HT-29; test: Induction of apoptosis in human HT-29 cells assessed as necrotic cells at 0.25 uM incubated for 24 hrs by Annexin V-FITC/PI staining based flow cytometric analysis (reference value: 0.14 %); type: functional
[7] = tested on: Mus musculus; test: as §1, with “colon” for “tumor”; type: functional, organism-based; conditions: dose 5-10 mg/kg, time 21.0 day
[8] = Plasma clearance in Sprague-Dawley rat at 10 mg/kg, iv measured for 24 hrs by HPLC-MS/MS analysis; type: ADME, organism-based
[9] = tested on: HCT-116; test: Induction of cell cycle arrest in human HCT-116 cells assessed as accumulation of cells at G0/G1 phase at 1 uM by RNase/PI staining based flow cytometry analysis (reference value: 33.08 %); type: functional
[10] = tested on: HCT-116; test: Induction of autophagic flux in human HCT-116 cells assessed as increase in LC3 protein expression preincubated with 3-methyladenine for 1 hr followed by compound addition and measured after 24 hrs by Western blot analysis; type: functional, cell-based
[11] = tested on: HT-29; test: Induction of apoptosis in human HT-29 cells assessed as early apoptotic cells at 1 uM incubated for 24 hrs by Annexin V-FITC/PI staining based flow cytometric analysis (reference value: 5.29 %); type: functional
[12] = tested on: HT-29; test: Induction of apoptosis in human HT-29 cells assessed as necrotic cells at 5 uM incubated for 24 hrs by Annexin V-FITC/PI staining based flow cytometric analysis (reference value: 0.37 %); type: functional
[13] = tested on: HCT-116; test: Induction of apoptosis in human HCT-116 cells assessed as inhibition of PARP protein expression measured for 24 hrs by Western blot analysis; type: functional, cell-based; conditions: dose 0-10 µM
[14] = tested on: Mus musculus; test: In vivo inhibition of NFkappaB activation in athymic BALB/c mouse xenografted with human HCT-116 cells assessed as reduction in A20 gene expression in tumor at 15 mg/kg, ip administered every other day and measured after 14 days by qRT-PCR analysis; type: functional, organism-based; conditions: time 14.0 day
[15] = tested on: HCT-15; test: Cytotoxicity against human HCT-15 cells assessed as decrease in cell viability incubated for 48 hrs by SRB assay; type: functional, cell-based; conditions: HCT-15, 48 h
[16] = tested on: Mus musculus; test: In vivo inhibition of NFkappaB activation in LPS-induced BALB/c mouse model of endotoxin shock assessed as inhibition of TNF-alpha mRNA expression in liver at 5 mg/kg, ip pretreated for 4 hrs followed by LPS stimulation for 1 hr by RT-PCR analysis; type: functional, organism-based; conditions: time 5.0 hrs
[17] = tested on: RAW264.7; test: Inhibition of LPS-induced NFkappaB activation in mouse RAW264.7 cells assessed as inhibition of p65 phosphorylation preincubated for 24 hrs followed by LPS stimulation for 3 hrs by Western blot analysis; type: cell-based; conditions: dose 1-10 µM, time 27.0 hrs
[18] = tested on: HT-29; test: Induction of autophagic cell death in human HT-29 cells at 1 to 10 uM pretreated with chloroquine for 1 hr followed by compound addition and measured after 24 hrs by SRB assay; type: functional, cell-based; conditions: dose 1-10 µM
[19] = tested on: HT-29; test: Induction of apoptosis in human HT-29 cells assessed as increase in cleavage of PARP measured for 24 hrs by Western blot analysis; type: functional, cell-based; conditions: dose 0-10 µM
[20] = tested on: Mus musculus; test: In vivo inhibition of NFkappaB activation in LPS-induced BALB/c mouse model of endotoxin shock assessed as inhibition of IL6 mRNA expression in liver at 5 mg/kg, ip pretreated for 4 hrs followed by LPS stimulation for 1 hr by RT-PCR analysis; type: functional, organism-based; conditions: time 5.0 hrs
[21] = tested on: Mus musculus; test: as §1, with “transformation into adenocarcinoma” for “tumor length”, “at” for “at 5 to”, “50 by H” for “50”, “E staining based analysis” for “measured once a week”; type: functional, organism-based; conditions: time 21.0 day
[22] = tested on: HT-29; test: Induction of cell cycle arrest in human HT-29 cells assessed as decrease in P-cdc2 protein expression upto 10 uM incubated for 24 hrs by Western blot analysis; type: functional, cell-based
[23] = Toxicity in athymic nude BALB/c mouse xenografted with human HCT-116 cells assessed as pathological changes in kidney at 5 to 15 mg/kg, ip administered every other day and measured after 14 days by hematoxylin and eosin staining-based microscopic analysis; type: organism-based; conditions: in vivo, 336 h, dose 5-15 mg/kg, time 14 day
[24] = tested on: HCT-116; test: Antitumor activity against human HCT-116 cells xenografted in athymic nude BALB/c mouse assessed as induction of apoptosis by measuring increase in cleaved PARP expression in tumor at 15 mg/kg, ip administered every other day and measured after 14 days by immunohistochemistry analysis; type: functional, organism-based; conditions: time 14.0 day
[25] = tested on: Mus musculus; test: In vivo inhibition of NFkappaB activation in LPS-induced BALB/c mouse model of endotoxin shock assessed as reduction in IL6 level in serum at 5 mg/kg, ip pretreated for 4 hrs followed by LPS stimulation for 1 hr by ELISA; type: functional, organism-based; conditions: time 5.0 hrs
[26] = tested on: HT-29; test: Induction of apoptosis in human HT-29 cells assessed as viable cells at 1 uM incubated for 24 hrs by Annexin V-FITC/PI staining based flow cytometric analysis (reference value: 93 %); type: functional; conditions: read-out: Activity
[27] = tested on: HT-29; test: Induction of autophagic cell death in human HT-29 cells at 1 to 10 uM pretreated with 3-methyladenine for 1 hr followed by compound addition and measured after 24 hrs by SRB assay; type: functional, cell-based; conditions: dose 1-10 µM
[28] = tested on: Mus musculus; test: In vivo inhibition of NFkappaB activation in athymic BALB/c mouse xenografted with human HT-29 cells assessed as reduction in A20 gene expression in tumor at 5 to 15 mg/kg, ip administered every other day and measured after 14 days by qRT-PCR analysis; type: functional, organism-based; conditions: dose 5-15 mg/kg, time 14.0 day
[29] = tested on: HCT-116; test: Induction of apoptosis in human HCT-116 cells assessed as inhibition of caspase 3 protein expression measured for 24 hrs by Western blot analysis; type: functional, cell-based; conditions: dose 0-10 µM
[30] = tested on: Cell membrane; test: Disruption of mitochondrial membrane potential in human HT-29 cells at 0.25 to 10 uM measured after 24 hrs by JC-1 staining based flow cytometry analysis; type: subcellular; conditions: dose 0.25-10 µM
[31] = Toxicity in athymic nude BALB/c mouse xenografted with human HT-29 cells assessed as pathological changes in lungs at 5 to 15 mg/kg, ip administered every other day and measured after 14 days by hematoxylin and eosin staining-based microscopic analysis; type: organism-based; conditions: in vivo, 336 h, dose 5-15 mg/kg, time 14 day

## C[C@@H]1CC[C@H]2[C@H](C(=O)c3c(O)c([C@@]4(O)CC[C@@H](O)[C@H]5O[C@H]54)cn(O)c3=O)[C@H](C)C=C[C@@H]2C1
[1]
  Activity: Active
[2]
  Activity: 46.75%
[3]
  Activity: 28.1%
[4]
  Activity: Active
[5]
  Activity: Active
[6]
  Activity: 0.1%
[7]
  Activity: Active
[8]
  clearance: 4 mL/min/kg
[9]
  Activity: 36.23%
[10]
  Activity: Active
[11]
  Activity: 47.4%
[12]
  Activity: 0.29%
[13]
  Activity: Dose-Dependent Effect
[14]
  inhibition: Active
[15]
  IC50: 570 nM
[16]
  inhibition: Active
[17]
  inhibition: Dose-Dependent Effect
[18]
  Activity: inactive
[19]
  Activity: Dose-Dependent Effect
[20]
  inhibition: Active
[21]
  Activity: Active
[22]
  Activity: Active
[23]
  Activity: Non-Toxic
[24]
  Activity: Active
[25]
  inhibition: Active
[26]
  viability at 1 µM: 44.8%
[27]
  Activity: inactive
[28]
  inhibition: Active
[29]
  Activity: Dose-Dependent Effect
[30]
  Activity: Active
[31]
  Activity: Non-Toxic
